Results from patent US20250312378A1, “COMPOSITION COMPRISING ANTI-FOLIC ACID AGENT FOR DIFFERENTIATION OF MESENCHYMAL STEM CELL INTO CARTILAGE” (EWHA UNIVERSITY-INDUSTRY COLLABORATION FOUNDATION, priority 2021, published 2025).

Experiments:
[1] = system: COL II; experiment: Screening of COL II mRNA expression under 3D culture conditions (FIG. 4B); type: cell-based, Human; conditions: 0.1 μM
Experimental: Various antifolates were screened to evaluate their effects on cell proliferation and viability and their chondrogenic potential. The antifolates used were dapsone (1), methotrexate (2), pemetrexed (3), pralatrexate (4), proguanil (5), pyrimethamine (6), and trimethoprim (7). Stem cells loaded in a PEG-PA thermogel scaffold containing each antifolate or KGN were cultured in a DMEM growth medium containing FBS (10.0% v/v) for 21 days. A control experiment was performed under the same conditions, except that no antifolate was added.
Expression of chondrogenic biomarkers was investigated in the presence of antifolates. The expression of COL II, the most widely used biomarker for chondrogenic differentiation of stem cells, was investigated at the mRNA level (FIG. 4B).

[2] = In vitro drug release from PEG-PA thermogel into PBS (HPLC); type: physicochemical; conditions: from PEG-PA thermogel (10.0 wt %) into PBS, 37° C.
Experimental: The drug release profile of the thermogel was determined in vitro. […] The temperature of the polymer solution containing the drug was increased to 37° C. to cause a sol-gel transition. After 30 minutes, phosphate-buffered saline (PBS) (1.2 mL, 37° C.) was added thereto, and the mixture was placed in a shaking thermostatic bath with 40 strokes/min at 37° C. PBS was replaced at specific sampling intervals. The drug released into the medium, PBS, was analyzed by a high-performance liquid chromatography system (HPLC; Waters 1525B, USA) equipped with a photodiode detector (Waters 2998, USA) and a Jupiter@5 μm C18 300A LC column (Phenomenex, USA). As a mobile phase, a mixed solvent of methanol/water (40/60 v/v) containing trifluoroacetic acid (0.1%) was used for dapsone, pralatrexate and trimethoprim, and a mixed solvent of acetonitrile/water (35/65 v/v) containing formic acid (0.1%) was used for KGN. The flow rate was set at 1.0 ml/min. The amount of drug released was analyzed at 260 nm for dapsone, 307 nm for pralatrexate, 287 nm for trimethoprim, and 274 nm for KGN, and was determined as the mean value of triplicate determinations.

[3] = system: COL II; experiment: COL II mRNA expression by qPCR in TMSCs in PEG-PA 3D matrix; type: cell-based, Human; conditions: 0.1 μM; for COL II expression level compared to control system (day not given): vs control system, time point not given; for COL II mRNA level compared to control system, day 14: day 14, vs control system containing no antifolate
Description: (§1) Based on the screening results obtained in Example 3, dapsone (1), pralatrexate (4), and trimethoprim (7) were selected as antifolate candidates.
(§2) Human TMSCs used as stem cells were donated from Ewha Womans University Mokdong Hospital (Seoul, Korea). The cells were isolated from a donor after tonsillectomy in compliance with the ethical guidelines of the University. DMEM (Corning, USA) containing 10.0% (v/v) fetal bovine serum (FBS, Corning, USA), 1.0% (v/v) penicillin/streptomycin (PS, Corning, USA) and 1.0% (v/v) […] (AA, Corning, USA) was used as a growth medium, and the isolated human TMSCs were cultured using the growth medium in traditional polystyrene culture dishes at 37° C. under 5% CO2 atmosphere. Then, the stem cells (passage 7, 0.5×10^6 cells/well) were mixed with the aqueous PEG-PA solution (10.0 wt % in growth medium) containing an antifolate or KGN at 20° C. A system containing no antifolate or KGN was used as a control. The TMSC-suspended solution was injected into a 24-well culture plate (0.2 ml/well) at 37° C. to form a hydrogel matrix. The medium was replaced every 3 days during a 3D culture period of 21 days, and each experiment was performed in triplicate.
(§3) Chondrogenic differentiation of TMSCs was investigated at the mRNA and protein levels of chondrogenic biomarkers such as COL II, SOX 9, and ACAN. Gene expression levels were determined compared to that of a control system containing no antifolate using equal amounts of cDNA. COL I, an osteogenic biomarker, was also used to determine whether osteogenic differentiation occurred when an antifolate was used.
(§4) Specifically, after 0, 14, and 21 days of 3D culture, mRNA was extracted from the cells in the thermogel by using a TRIZOL™ reagent (Invitrogen, USA) according to the manufacturer's protocol, and the mRNA concentration was assayed by a Nano Drop 2000 spectrometer (Thermo Scientific, USA). Equal amounts of cDNA were used in qPCR to determine gene expression levels compared to that of the control system containing no antifolate. Then, total cDNA was synthesized using a ReverTra Ace® qPCR RT kit (Toyobo, Japan), and mRNA expression levels were measured using a CFX96™ real-time RT-PCR system (Bio-Rad, USA) and an iQ™ SYBR® Green Supermix solution (Bio-Rad, USA). The relative expression levels of target genes were calculated as 2^−ΔΔCt by the following calculation equation: ΔΔCt=(gene A−GAPDH)t−(gene A−GAPDH)0. Here, the subscript 0 refers to data on day 0 (3 hours). The primer sequences used for amplification are shown in Table 1 below, and each test value was determined as the mean value of triplicate determinations.

[4] = system: ACAN; experiment: ACAN mRNA expression by qPCR in TMSCs in PEG-PA 3D matrix; type: cell-based, Human; conditions: 0.1 μM; for ACAN expression level on day 14 compared to control system: day 14, vs control system containing no antifolate; for ACAN mRNA level on day 14 compared to day 0: day 14 vs day 0 (3 hours after start of culture)
Description: as §1, §2, §3
as §4, with “[…],” for “after 0, 14, and 21 days of 3D culture,”

[5] = system: SOX 9; experiment: SOX 9 protein expression by immunofluorescence assay; type: cell-based, Human; conditions: 0.1 μM, 14 days 3D culture
Experimental: (§5) Protein expression for COL II, SOX 9, ACAN and COL I was investigated using immunofluorescence assay for stem cells cultured for 14 days. Specifically, TMSCs, which were 3D cultured with antifolates or KGN for 14 days and then encapsulated in thermogel scaffolds, were fixed with 4.0% paraformaldehyde (PFA) for 12 hours and quickly frozen at −70° C. Then, the thermogels were cryosectioned to a thickness of 10 μm using CM1850 (Leica, Germany). All the samples were treated with Triton (0.25% v/v in PBS), and then blocked with bovine serum albumin (1.0% w/v in PBS), and treated with anti-COL II, anti-SOX 9, anti-ACAN, and anti-COL I primary antibodies. Next, the samples were washed with PBS and treated with the following secondary antibodies: goat anti-mouse IgG H&L Alexa Fluor®594 for COL II and ACAN, and goat anti-rabbit IgG H&L Alexa Fluor®594 for SOX 9 and COL I. All the antibodies were purchased from Abcam (USA) and tested according to the manufacturer's protocol. In addition, each sample was stained for nuclei and F-actin with DAPI (Molecular probes, USA) and phalloidin (PHD) (Abcam, USA), respectively. Images were obtained using an Olympus IX71 fluorescence microscope and Olympus DP2-BSW software.
(§6) For immunofluorescence assay, the cell nucleus and actin were stained blue and green with DAPI and PHD, respectively, and the antibodies for each protein were stained red.

[6] = system: CBFβ; experiment: Nuclear translocation of CBFβ in TMSCs by Western blot; type: cell-based, Human; conditions: serum-free growth medium after overnight starvation
Description: Filamin A is an actin-binding protein that regulates the cytoskeletal network involved in chondrogenic differentiation. When KGN binds to filamin A in the cytosol, the interaction between filamin A and CBFβ is broken, and when the dissociated CBFβ enters the nucleus, CBFβ regulates RUNX1, thereby promoting differentiation of MSCs into chondrocytes. Whether the antifolate can be involved in this mechanism and regulate chondrogenic differentiation-related factors was examined by Western blot analysis and immunofluorescence assay.
Specifically, for Western blot analysis, stem cells (TMSCs) were starved overnight and then treated with each antifolate or KGN in serum-free growth medium. Then, cytosolic and nuclear proteins of the TMSCs were obtained using a nuclear/cytosolic fractionation kit (Cell Biolabs Inc., USA) and total protein was obtained using a cell extraction buffer (Invitrogen, USA) containing a protease inhibitor and phenyl methane sulfonyl fluoride (1.0 mM). Each of the cytosolic and nuclear proteins was loaded, detected with anti-CBFβ primary antibody (Cell Signaling Technology, USA), and then treated with anti-rabbit IgG HRP-conjugated secondary antibody (Cell Signaling Technology, USA) and incubated. Then, the proteins were visualized with an enhanced chemiluminescence substrate (Bio-rad, USA) using an Amersham Imager 600 (GE, UK).

[7] = system: COL II; experiment: COL II protein expression by immunofluorescence assay; type: cell-based, Human; conditions: 0.1 μM, 14 days 3D culture
Experimental: as §5, §6

[8] = system: SOX 9; experiment: SOX 9 mRNA expression by qPCR in TMSCs in PEG-PA 3D matrix; type: cell-based, Human; conditions: 0.1 μM
Description: as §1, §2, §3
as §4, with “[…],” for “after 0, 14, and 21 days of 3D culture,”

[9] = system: ACAN; experiment: ACAN protein expression by immunofluorescence assay; type: cell-based, Human; conditions: 0.1 μM, 14 days 3D culture
Experimental: as §5, §6

[10] = system: RUNX1; experiment: RUNX1 immunofluorescence in TMSCs; type: cell-based, Human; conditions: serum-free growth medium after overnight starvation
Experimental: For immunofluorescence assay, stem cells were starved overnight and then treated with each antifolate or KGN in serum-free growth medium. Each cell was treated with bovine serum albumin (1.0% w/v in PBS), and then treated with anti-CBFβ primary antibody (Abcam, USA) and anti-RUNX1 primary antibody (Santa Cruz Biotechnology, USA) and incubated. The cells were treated with anti-rabbit IgG H&L secondary antibodies (Abcam, USA) and anti-mouse IgG H&L secondary antibodies (Abcam, USA) against CBFβ and RUNX1, respectively. The cell nuclei were stained with DAPI (Molecular probes, USA), and each image was obtained using an Olympus IX71 fluorescence microscope and Olympus DP2-BSW software.

drug released over 24 hours [2] | Structure (SMILES) | mRNA expression level of COL II compared to control [1] | COL II expression level compared to control system (day not given) [3] | ACAN expression level on day 14 compared to control system [4] | ACAN mRNA level on day 14 compared to day 0 [4] | ACAN mRNA level relative to control system, day 20 ([4]; day 20) | COL II mRNA level compared to control system, day 14 [3] | fluorescence intensity of SOX 9 protein [5] | nuclear translocation of CBFβ (nuclear versus cytosolic band intensity, FIG. 8B) [6] | COL II expression, rank among systems [3] | COL II expression relative to KGN ([3]; day 14) | COL II expression on day 14 compared to day 0 ([3]; day 14 vs day 0 (3 hours after start of culture)) | fluorescence intensity of COL II protein [7] | SOX 9 expression change [8] | SOX 9 mRNA level, rank among systems [8] | SOX 9 mRNA expression level compared to control system, day 14 [8] | fluorescence intensity of ACAN protein [9] | fluorescence intensity of RUNX1 in the nucleus compared to control [10]
70% | Nc1ccc(S(=O)(=O)c2ccc(N)cc2)cc1 [dapsone] | 1.8 fold | 2.6 fold | – | – | – | – | – | – | – | – | – | – | – | – | – | – | –
– | O=C(O)c1ccccc1C(=O)Nc1ccc(-c2ccccc2)cc1 [KGN, kartogenin] | 1.5 fold | 2.1 fold | 1.7 fold | 5 fold | approximately 3.7 times | 1.7 fold | – | – | – | – | – | – | – | – | – | – | –
79% | C#CCC(Cc1cnc2nc(N)nc(N)c2n1)c1ccc(C(=O)N[C@@H](CCC(=O)O)C(=O)O)cc1 (stereo partly shown) [pralatrexate] | 2.1 fold | 3.5 fold | 4.3 fold | 12 fold | – | 3.9 fold | highest | increased | highest | 2 fold | 10 fold | highest | significantly (p<0.01) increased | highest | 4.2 fold | highest | increased
79% | COc1cc(Cc2cnc(N)nc2N)cc(OC)c1OC [trimethoprim] | 1.5 fold | 2.1 fold | 2.2 fold | 6 fold | – | 2.1 fold | – | – | – | – | – | – | significantly (p<0.01) increased | – | 2.9 fold | – | –
